# Experimental data: patent publication US10011573B2, “Human androgen receptor DNA-binding domain (DBD) compounds as therapeutics and methods for their use” (The University of British Columbia, priority 2014, dated 2018)
# Key:
# PC3 cells = assay: Cell viability (MTS) assay, PC3; format: cell-based, human; conditions: 0.1 nM R1881
# Protocol: 1. Cell Culture: LNCaP and PC3 human prostate cancer cells were obtained from American Type Culture Collection (ATCC, Manassas, Va.) and grown in RPMI 1640 medium supplemented with 5% fetal bovine serum (FBS) (Invitrogen). […]. All cells were maintained at 37° C. in 5% CO2.
# 7. Cell viability assay: The PC3, LNCaP, and MDV3100-resistant cells were plated at 3,000 cells per well in RPMI 1640 containing 5% charcoal stripped serum (CSS) in a 96-well plate, treated with 0.1 nM R1881 and compounds (0-25 μM) for 96 hrs.
# AR Y594D mutant = target: T1, AR Y594D mutant (Homo sapiens, UniProt P10275, Y594D); assay: ARR3tk-luciferase reporter assay in PC3 cells, AR Y594D; format: cell-based
# T1 construct: expressed in transfected cells; host or cells: PC3
# T1 sequence (P10275 whole entry Y594D): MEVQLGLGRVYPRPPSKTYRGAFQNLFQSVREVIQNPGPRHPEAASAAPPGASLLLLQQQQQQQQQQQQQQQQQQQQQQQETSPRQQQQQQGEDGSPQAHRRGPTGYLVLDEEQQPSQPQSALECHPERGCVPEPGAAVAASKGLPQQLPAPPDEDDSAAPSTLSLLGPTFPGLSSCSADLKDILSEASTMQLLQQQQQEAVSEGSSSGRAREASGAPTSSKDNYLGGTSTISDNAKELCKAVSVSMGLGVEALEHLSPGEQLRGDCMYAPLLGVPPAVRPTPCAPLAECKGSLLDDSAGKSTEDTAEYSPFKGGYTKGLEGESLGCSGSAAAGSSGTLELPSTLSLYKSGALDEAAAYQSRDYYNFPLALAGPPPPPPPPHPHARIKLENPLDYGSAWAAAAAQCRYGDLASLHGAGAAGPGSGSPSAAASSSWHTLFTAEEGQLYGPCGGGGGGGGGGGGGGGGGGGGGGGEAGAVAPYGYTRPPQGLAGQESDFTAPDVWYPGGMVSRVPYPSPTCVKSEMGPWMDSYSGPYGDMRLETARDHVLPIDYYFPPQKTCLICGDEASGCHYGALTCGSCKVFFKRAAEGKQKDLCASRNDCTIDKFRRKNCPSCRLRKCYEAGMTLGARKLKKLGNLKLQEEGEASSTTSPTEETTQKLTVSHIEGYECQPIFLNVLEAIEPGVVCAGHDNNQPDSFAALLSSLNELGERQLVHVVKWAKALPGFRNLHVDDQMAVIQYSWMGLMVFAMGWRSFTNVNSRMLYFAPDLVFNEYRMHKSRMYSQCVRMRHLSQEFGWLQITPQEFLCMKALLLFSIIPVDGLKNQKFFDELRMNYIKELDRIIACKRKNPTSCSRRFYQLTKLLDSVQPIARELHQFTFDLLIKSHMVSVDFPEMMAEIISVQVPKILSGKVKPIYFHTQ
# Protocol: (§1) 8. Mutation Studies: The residues in the predicted binding site were mutated using the Quickchange™ Site-Directed Mutagenesis Kit as per the instructions.
# (§2) 9. Transient Transfection: The PC3/MCF7 cells were seeded into a 96-well plate (2,000 cells/well). After 24 hrs, the wild-type AR (50 ng/well)/AR mutants and AR3TK-luciferase plasmids (1:3) were co-transfected into PC3 cells or ERE-luciferase (50 ng/well) was transfected into MCF7 cells using transfection reagent TT20. 24 hrs after the transfection, the cells were treated with the compounds at various concentrations. And 24 hrs later, the cells were lysed and the reading was taken using a luminometer.
# AR Q592D mutant = target: T2, AR Q592D mutant (Homo sapiens, UniProt P10275, Q592D); assay: ARR3tk-luciferase reporter assay in PC3 cells, AR Q592D; format: cell-based
# T2 construct: Full-length human AR (hARWT) or splice variant (AR-V7) was encoded on a pcDNA3.1 expression plasmid; expressed in transfected cells; host or cells: PC3
# T2 sequence (P10275 whole entry Q592D, canonical isoform): as the sequence (P10275 whole entry Y594D) above, with Q592D, D594Y counted along it
# Protocol: as §1, §2
# PARP = assay: Western blots against PARP / cleaved PARP (apoptosis); format: cell-based, human; conditions: PC3 luciferase assay lysates
# Protocol: Cell lysates (40 μl) from luciferase assays (96-well plate) were separated on a 10% SDS-polyacrylamide mini gel. Protein was transferred to methanol-charged PVDF membranes and probed with anti-AR441 (mouse, Sigma™) monoclonal primary antibody. Blots were also probed with polyclonal anti-actin (rabbit, Sigma™) to show equal loading and polyclonal anti-PARP/anti-cleaved PARP (rabbit, Sigma™) to test for induction of apoptosis. Lysates from CWR-R1 cells were additionally probed with polyclonal anti-FKBP5 (rabbit, Sigma™) following 2 days of incubation with compounds.
# AR-DBD+hinge / ARE dsDNA = target: T3, AR-DBD+hinge / ARE dsDNA (Homo sapiens, UniProt P10275); assay: Biolayer interferometry analysis of dsDNA (ARE) association with biotinylated AR-DBD+hinge; format: binding; design: His tag (C); made in house; host or cells: E. coli BL21 co-transformed with biotin ligase vector (pBir-Acm); conditions: 50 μM compound
# T3 sequence (P10275 558-689): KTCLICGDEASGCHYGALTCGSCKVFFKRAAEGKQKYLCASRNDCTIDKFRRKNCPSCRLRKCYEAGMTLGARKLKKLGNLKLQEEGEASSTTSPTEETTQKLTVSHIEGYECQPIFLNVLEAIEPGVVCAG
# Protocol: The plasmid encoding the AR-DBD+hinge was transformed into BL21 (DE3). BL21 cells designated for expression of biotin-labeled AR-DBD+hinge were co-transformed with the Pan4 AR-DBD+hinge (ampicillin selection) and biotin ligase expression vectors (pBir-Acm, chloramphenicol selection). Single colonies were grown in 2 liters of LB media supplemented with 50 μg/ml ampicillin and 35 μg/ml chloramphenicol (where appropriate) to A600 nm=0.6 before induction with 0.1 mM isopropyl β-D-1-thiogalactopyranoside for 3 h at 37° C. Cultures expressing the AR-DBD with the biotinylation sequence were simultaneously supplemented with 0.150 mM biotin during the induction step. Cell pellets were resuspended in ˜20 ml of 50 mM Tris-HCl, pH 8.0, 300 mM NaCl, 5% glycerol (Buffer A) supplemented with 10 mM imidazole and incubated with 0.1 mg/ml chicken egg white lysozyme (Sigma™) and 0.1 mM PMSF protease inhibitor for 30 min on ice. Cell lysis was achieved by sonication, followed by centrifugation at 13,000×g for 30 min at 4° C. The supernatant was rotated with 2 ml of nickel-agarose beads (GE Healthcare™) for 1 h at 4° C. and then directly loaded onto a Poly-Prep 10-ml gravity chromatography column (Bio-Rad™). Washing was performed with 2×4 ml of Buffer A supplemented with 20 mM imidazole. Pure proteins were eluted in 500-μl fractions with 2 ml of Buffer A containing 250 mM imidazole.
# Biolayer interferometry analysis on a ForteBio Octet Red™ instrument was carried out using biotinylated AR-DBD+hinge in Buffer A with 5% DMSO throughout all experiments. The DBD (0.1 mg/ml) was loaded onto streptavidin sensors in 200 μl of buffer for 30 min, followed by blocking of free streptavidin sites with biocytin (10 μg/ml) for 10 min. DBD-loaded sensors were then pre-equilibrated in 50 μM compound or 5% DMSO alone for 100 s in the same buffer. The kinetics of DNA association were monitored by moving sensors into wells containing dsDNA (ARE, 3 μM) supplemented with 50 μM compound for 120 s. This was followed by dissociation in buffer+compound, but lacking DNA, for an additional 120 s. Biocytin-blocked control sensors (no AR-DBD) were subjected to the same experimental conditions, and nonspecific interactions with dsDNA were subtracted from each curve.
SMILES,"inhibition of cell growth, PC3 (AR-negative) (PC3 cells)",inhibition of Y594D AR luciferase expression (AR Y594D mutant),inhibition of Q592D AR luciferase expression (AR Q592D mutant),toxicity / induction of apoptosis (PARP cleavage) (PARP),dsDNA dissociation from AR-DBD (AR-DBD+hinge / ARE dsDNA),rate of dsDNA association with AR-DBD (AR-DBD+hinge / ARE dsDNA),concentration at which Y594D AR is inhibited (AR Y594D mutant; PC3 cells),concentration at which Q592D AR is inhibited (AR Q592D mutant; PC3 cells)
"c1ccc(-c2csc(N3CCOCC3)n2)cc1 [Compound 14228, 4-(4-phenylthiazol-2-yl)morpholine]",no effect,not affected,not affected,little or no toxicity,relatively unchanged,significantly slower rate of dsDNA binding,–,–
Brc1ncn(-c2csc(N3CCOCC3)n2)c1Br [Compound 14449],ineffective,–,–,little or no toxicity,relatively unchanged,significantly slower rate of dsDNA binding,≥ 25 µM,≥ 25 µM
